Assay results from US9957274B2, “Indane inhibitors of EED and methods of their use” (AbbVie Inc., priority 2016, dated 2018).

These molecules were tested against EED (Homo sapiens, UniProt O75530) (assay: EED TR-FRET Binding Assay (modified LanthaScreen competition assay)).
Experimental: Compounds were tested in a modified LanthaScreen competition assay.
The following buffer was used to set up the binding reactions: 20 mM Tris-HCl pH 7.5, 200 mM NaCl, 0.01% Tween-20, 10 uM DTT (dithiothreitol), and 0.05% BSA (bovine serum albumin), with the DTT and BSA added fresh prior to initiating the binding assay. […] The reactions were then incubated for 1 hour at 25° C. in a humidified chamber prior to detection on the Perkin Elmer Envision plate reader using a Lanthascreen TR-FRET protocol.

Sequence of EED (O75530 whole entry): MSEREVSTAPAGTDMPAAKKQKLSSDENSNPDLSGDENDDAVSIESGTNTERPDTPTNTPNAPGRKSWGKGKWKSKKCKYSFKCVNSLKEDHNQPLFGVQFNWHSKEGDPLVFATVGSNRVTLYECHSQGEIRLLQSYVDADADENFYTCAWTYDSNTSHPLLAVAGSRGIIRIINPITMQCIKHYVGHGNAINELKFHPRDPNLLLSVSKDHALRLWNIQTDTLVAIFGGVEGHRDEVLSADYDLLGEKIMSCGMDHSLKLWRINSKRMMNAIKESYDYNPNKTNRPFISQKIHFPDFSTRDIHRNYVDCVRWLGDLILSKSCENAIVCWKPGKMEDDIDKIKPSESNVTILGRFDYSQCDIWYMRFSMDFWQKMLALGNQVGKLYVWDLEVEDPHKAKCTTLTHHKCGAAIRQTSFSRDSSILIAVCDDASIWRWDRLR

| SMILES | IC50 [nM] |
| --- | --- |
| CN(C)[C@H]1CN([C@@H]2C[C@@H](O)c3cccc(F)c32)C[C@@H]1c1ccc(S(C)(=O)=O)cc1 (mixture of isomers) [Example 16, rac-(1R,3R)-3-{(3R,4S)-3-(dimethylamino)-4-[4-(methanesulfonyl)phenyl]pyrrolidin-1-yl}-4-fluoro-2,3-dihydro-1H-inden-1-ol] | 491 |
| CN(C)[C@H]1CN([C@H]2C[C@H](O)c3cccc(F)c32)C[C@@H]1c1ccc(S(C)(=O)=O)cc1 (mixture of isomers) [Example 18, rac-(1S,3S)-3-{(3R,4S)-3-(dimethylamino)-4-[4-(methanesulfonyl)phenyl]pyrrolidin-1-yl}-4-fluoro-2,3-dihydro-1H-inden-1-ol] | 16.2 |
| CN(C)[C@H]1CN([C@H]2C[C@@H](O)c3cccc(F)c32)C[C@@H]1c1ccc(S(C)(=O)=O)cc1 (mixture of isomers) [Example 34, rac-(1R,3S)-3-{(3R,4S)-3-(dimethylamino)-4-[4-(methanesulfonyl)phenyl]pyrrolidin-1-yl}-4-fluoro-2,3-dihydro-1H-inden-1-ol] | 104 |
| CN(C)[C@H]1CN([C@H]2CCc3cccc(F)c32)C[C@@H]1c1cn(C)c2cccnc12 (mixture of isomers) [Example 138, rac-(3R,4S)-1-[(1S)-7-fluoro-2,3-dihydro-1H-inden-1-yl]-N,N-dimethyl-4-(1-methyl-1H-pyrrolo[3,2-b]pyridin-3-yl)pyrrolidin-3-amine] | 119 |
| CN(C)[C@@H]1CN([C@@H]2CCc3cccc(F)c32)C[C@H]1C1COc2ccccc21 (mixture of isomers) [Example 139, rac-(3S,4R)-4-(2,3-dihydro-1-benzofuran-3-yl)-1-[(1R)-7-fluoro-2,3-dihydro-1H-inden-1-yl]-N,N-dimethylpyrrolidin-3-amine] | 83.5 |
| CN(C)[C@H]1CN([C@@H]2CCc3cccc(F)c32)C[C@@H]1C1COc2ccccc21 (mixture of isomers) [Example 142, rac-(3R,4S)-4-(2,3-dihydro-1-benzofuran-3-yl)-1-[(1R)-7-fluoro-2,3-dihydro-1H-inden-1-yl]-N,N-dimethylpyrrolidin-3-amine] | 26 |
| CN(C)[C@H]1CN([C@@H]2CCc3cccc(F)c32)C[C@@H]1c1cn(C)c2cccnc12 (mixture of isomers) [Example 143, rac-(3R,4S)-1-[(1R)-7-fluoro-2,3-dihydro-1H-inden-1-yl]-N,N-dimethyl-4-(1-methyl-1H-pyrrolo[3,2-b]pyridin-3-yl)pyrrolidin-3-amine] | 19.4 |
| COC(=O)c1ccc([C@H]2CN(C3CCc4cccc(Cl)c43)C[C@@H]2N(C)C)cc1 (mixture of isomers) [Example 21, rac-methyl 4-[(3S,4R)-1-(7-chloro-2,3-dihydro-1H-inden-1-yl)-4-(dimethylamino)pyrrolidin-3-yl]benzoate] | 70.7 |
| Cc1cc([C@H]2CN(C3CCc4cccc(F)c43)C[C@@H]2N(C)C)ccc1Br (mixture of isomers) [Example 27, rac-(3R,4S)-4-(4-bromo-3-methylphenyl)-1-(7-fluoro-2,3-dihydro-1H-inden-1-yl)-N,N-dimethylpyrrolidin-3-amine] | 1.84 |
| CN(C)[C@H]1CN(C2CCc3cccc(Cl)c32)C[C@@H]1c1ccc(C(=O)O)cc1 (mixture of isomers) [Example 28, rac-4-[(3S,4R)-1-(7-chloro-2,3-dihydro-1H-inden-1-yl)-4-(dimethylamino)pyrrolidin-3-yl]benzoic acid] | 489 |
| CN(C)[C@@H]1CN(C2CCc3cccc(F)c32)C[C@H]1c1ccc(C(=O)O)cc1 (mixture of isomers) [Example 29, rac-4-[(3R,4S)-4-(dimethylamino)-1-(7-fluoro-2,3-dihydro-1H-inden-1-yl)pyrrolidin-3-yl]benzoic acid] | 23.2 |
| Cc1cc([C@H]2CN(C3CCc4cccc(F)c43)C[C@@H]2N(C)C)ccc1C(=O)O (mixture of isomers) [Example 36, rac-4-[(3S,4R)-4-(dimethylamino)-1-(7-fluoro-2,3-dihydro-1H-inden-1-yl)pyrrolidin-3-yl]-2-methylbenzoic acid] | 14.3 |
| Cc1cc([C@H]2CN(C3c4ccccc4CC3O)C[C@@H]2N(C)C)ccc1C#N (mixture of isomers) [Example 38, rac-4-[(3S,4R)-4-(dimethylamino)-1-(2-hydroxy-2,3-dihydro-1H-inden-1-yl)pyrrolidin-3-yl]-2-methylbenzonitrile] | 68.7 |
| COC(=O)c1ccc([C@H]2CN(C3CCc4cccc(F)c43)C[C@@H]2N(C)C)cc1C (mixture of isomers) [Example 39, rac-methyl 4-[(3S,4R)-4-(dimethylamino)-1-(7-fluoro-2,3-dihydro-1H-inden-1-yl)pyrrolidin-3-yl]-2-methylbenzoate] | 1.07 |
| CN1CCN(C(=O)c2ccc([C@H]3CN(C4CCc5cccc(F)c54)C[C@@H]3N(C)C)cc2)CC1=O (mixture of isomers) [Example 51, rac-4-{4-[(3S,4R)-4-(dimethylamino)-1-(7-fluoro-2,3-dihydro-1H-inden-1-yl)pyrrolidin-3-yl]benzoyl}-1-methylpiperazin-2-one] | 12.4 |
| CN(C)[C@H]1CN(C2CCc3cccc(F)c32)C[C@@H]1c1ccc(C(=O)N2CCN(S(C)(=O)=O)CC2)cc1 (mixture of isomers) [Example 53, rac-{4-[(3S,4R)-4-(dimethylamino)-1-(7-fluoro-2,3-dihydro-1H-inden-1-yl)pyrrolidin-3-yl]phenyl}[4-(methanesulfonyl)piperazin-1-yl]methanone] | 12.3 |
| CC(=O)N1CCN(C(=O)c2ccc([C@H]3CN(C4CCc5cccc(F)c54)C[C@@H]3N(C)C)cc2)CC1 (mixture of isomers) [Example 55, rac-1-(4-{4-[(3S,4R)-4-(dimethylamino)-1-(7-fluoro-2,3-dihydro-1H-inden-1-yl)pyrrolidin-3-yl]benzoyl}piperazin-1-yl)ethan-1-one] | 13.2 |
| CCS(=O)(=O)N1CCN(C(=O)c2ccc([C@H]3CN(C4CCc5cccc(F)c54)C[C@@H]3N(C)C)cc2)CC1 (mixture of isomers) [Example 57, rac-{4-[(3S,4R)-4-(dimethylamino)-1-(7-fluoro-2,3-dihydro-1H-inden-1-yl)pyrrolidin-3-yl]phenyl}[4-(ethanesulfonyl)piperazin-1-yl]methanone] | 12.3 |
| Cc1coc(-c2ccc([C@@H]3CN(C4CCc5cccc(F)c54)C[C@H]3N(C)C)cc2)n1 (mixture of isomers) [Example 69, rac-(3S,4R)-1-(7-fluoro-2,3-dihydro-1H-inden-1-yl)-N,N-dimethyl-4-[4-(4-methyl-1,3-oxazol-2-yl)phenyl]pyrrolidin-3-amine] | 3.89 |
| COC(=O)c1ccc2c([C@@H]3CN(C4CCc5cccc(F)c54)C[C@H]3N(C)C)cn(C)c2c1 (mixture of isomers) [Example 83, rac-methyl 3-[(3R,4S)-4-(dimethylamino)-1-(7-fluoro-2,3-dihydro-1H-inden-1-yl)pyrrolidin-3-yl]-1-methyl-1H-indole-6-carboxylate] | 10.9 |
| COC(=O)c1cccc2c([C@H]3CN(C4CCc5cccc(F)c54)C[C@@H]3N(C)C)cn(C)c12 (mixture of isomers) [Example 85, rac-methyl 3-[(3S,4R)-4-(dimethylamino)-1-(7-fluoro-2,3-dihydro-1H-inden-1-yl)pyrrolidin-3-yl]-1-methyl-1H-indole-7-carboxylate] | 0.561 |
| CN(C)[C@H]1CN(C2CCc3c(F)cccc32)C[C@@H]1c1cn(C)c2ccccc12 (mixture of isomers) [Example 90, rac-(3R,4S)-1-(4-fluoro-2,3-dihydro-1H-inden-1-yl)-N,N-dimethyl-4-(1-methyl-1H-indol-3-yl)pyrrolidin-3-amine] | 20.8 |
| CN(C)[C@H]1CN(C2CCc3cc(F)ccc32)C[C@@H]1c1cn(C)c2ccccc12 (mixture of isomers) [Example 91, rac-(3R,4S)-1-(5-fluoro-2,3-dihydro-1H-inden-1-yl)-N,N-dimethyl-4-(1-methyl-1H-indol-3-yl)pyrrolidin-3-amine] | 30.7 |
| CN(C)[C@H]1CN(C2CCc3cccc(F)c32)C[C@@H]1c1cn(C)c2c(Br)cccc12 (mixture of isomers) [Example 93, rac-(3R,4S)-4-(7-bromo-1-methyl-1H-indol-3-yl)-1-(7-fluoro-2,3-dihydro-1H-inden-1-yl)-N,N-dimethylpyrrolidin-3-amine] | 2.76 |
| CN(C)[C@H]1CN(C2CCc3cccc(F)c32)C[C@@H]1c1cn(C)c2cc(Br)ccc12 (mixture of isomers) [Example 94, rac-(3R,4S)-4-(6-bromo-1-methyl-1H-indol-3-yl)-1-(7-fluoro-2,3-dihydro-1H-inden-1-yl)-N,N-dimethylpyrrolidin-3-amine] | 4.9 |
| CN(C)[C@H]1CN(C2CCc3cccc(F)c32)C[C@@H]1c1cn(C)c2cc(N3CCN(S(C)(=O)=O)CC3)ccc12 (mixture of isomers) [Example 120, rac-(3R,4S)-1-(7-fluoro-2,3-dihydro-1H-inden-1-yl)-4-{6-[4-(methanesulfonyl)piperazin-1-yl]-1-methyl-1H-indol-3-yl}-N,N-dimethylpyrrolidin-3-amine] | 3.46 |
| CC(=O)N1CCN(c2ccc3c([C@H]4CN(C5CCc6cccc(F)c65)C[C@@H]4N(C)C)cn(C)c3c2)CC1 (mixture of isomers) [Example 121, rac-1-(4-{3-[(3S,4R)-4-(dimethylamino)-1-(7-fluoro-2,3-dihydro-1H-inden-1-yl)pyrrolidin-3-yl]-1-methyl-1H-indol-6-yl}piperazin-1-yl)ethan-1-one] | 3.79 |
| CN(C)[C@@H]1CN(C2CCc3cccc(F)c32)C[C@H]1c1cnc2n1CCCC2 (mixture of isomers) [Example 140, rac-(3S,4R)-1-(7-fluoro-2,3-dihydro-1H-inden-1-yl)-N,N-dimethyl-4-(5,6,7,8-tetrahydroimidazo[1,2-a]pyridin-3-yl)pyrrolidin-3-amine] | 61.3 |
| CN(C)[C@H]1CN(C2CCc3cccc(F)c32)C[C@@H]1c1cn(C)c2ccncc12 (mixture of isomers) [Example 141, rac-(3R,4S)-1-(7-fluoro-2,3-dihydro-1H-inden-1-yl)-N,N-dimethyl-4-(1-methyl-1H-pyrrolo[3,2-c]pyridin-3-yl)pyrrolidin-3-amine] | 46.8 |
